Measured values published in PubChem BioAssay AID493126 (Sanford-Burnham Center for Chemical Genomics, 2011).
Active and inactive are the calls of the source. No rule for the calls is given here.

Each compound was assayed against Alkaline phosphatase, germ cell type (Homo sapiens) (UniProt P10696) (assay: PLAP enzyme activity modulators, SAR follow-up, selectivity assay for human IAP activator project, biochemical (AID 493126)). Settings: purified PLAP enzyme, counter-screen.
Alkaline phosphatase, germ cell type (Homo sapiens), sequence (P10696 whole entry, looked up): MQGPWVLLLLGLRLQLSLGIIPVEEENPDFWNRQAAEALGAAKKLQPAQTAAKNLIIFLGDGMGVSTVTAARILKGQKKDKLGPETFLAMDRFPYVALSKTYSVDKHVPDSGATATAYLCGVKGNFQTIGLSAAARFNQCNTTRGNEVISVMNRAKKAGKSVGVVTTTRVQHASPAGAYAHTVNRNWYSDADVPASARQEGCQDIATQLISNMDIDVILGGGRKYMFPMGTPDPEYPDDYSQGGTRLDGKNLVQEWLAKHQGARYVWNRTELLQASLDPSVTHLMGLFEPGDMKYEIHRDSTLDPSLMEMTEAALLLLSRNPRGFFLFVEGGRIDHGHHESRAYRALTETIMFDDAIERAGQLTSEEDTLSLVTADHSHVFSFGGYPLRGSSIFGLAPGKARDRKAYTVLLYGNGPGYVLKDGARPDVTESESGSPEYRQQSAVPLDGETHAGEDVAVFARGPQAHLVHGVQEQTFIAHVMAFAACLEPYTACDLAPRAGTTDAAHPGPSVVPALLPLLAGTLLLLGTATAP

| SMILES | IC50 (inhibition of PLAP activity) |
| --- | --- |
| O=C(NC(=S)NNC(=O)c1ccccc1O)c1ccc(F)cc1 | 11 µM |
| Cc1ccc(-c2cc(C(=O)NN=Cc3ccccc3O)n[nH]2)o1 | 6.41 µM |
| CCOc1cccc(C=NNC(=O)c2cc(-c3cccn3C)n[nH]2)c1O | 9.86 µM |
| COc1ccc(-c2csc(Nc3cccc4ccccc34)n2)cc1F | > 100 µM (inactive) |
| O=C(N/N=C/c1ccccc1O)c1cc(C2CC2)[nH]n1 | 8.62 µM |
| COc1cc(/C=N/NC(=O)C(=O)N/N=C/c2ccc(O)c(OC)c2)ccc1O | 46.8 µM |
| Cc1cc(C(=O)NN=Cc2cccc([N+](=O)[O-])c2O)n[nH]1 | > 100 µM (inactive) |
| O=C(N/N=C\c1ccc2c(c1)OCO2)C(=O)N/N=C/c1ccc2c(c1)OCO2 | > 100 µM (inactive) |
| CC(=O)Nc1ccc(/C=N/NC(=O)C(=O)N/N=C/c2ccc(NC(C)=O)cc2)cc1 | > 100 µM (inactive) |
| C/C(=N\NC(=O)c1[nH]nc2c1CCc1ccccc1-2)c1ccccc1O | 7.57 µM |
| COc1cccc(C=NNC(=O)c2[nH]nc3c2CCc2ccccc2-3)c1O | 12.1 µM |
| O=C(NN=Cc1c(O)ccc2ccccc12)c1[nH]ncc1Br | > 100 µM (inactive) |
| COc1cccc(C=NNC(=O)C(=O)NN=Cc2cccc(OC)c2O)c1O | 8.61 µM |
| O=C(NN=Cc1ccccc1)C(=O)NN=Cc1ccccc1 | 32.9 µM |
| OC(c1nc2ccc(F)cc2[nH]1)C(O)c1nc2ccc(F)cc2[nH]1 (stereo unspecified) | 6.83 µM |
| CCCCOc1ccc(/C=N/NC(=O)C(=O)N/N=C/c2ccc(OCCCC)cc2)cc1 | > 100 µM (inactive) |
| O=C(N/N=C/c1ccc(O)cc1)C(=O)N/N=C/c1ccc(O)cc1 | > 100 µM (inactive) |
| CC(C)Oc1ccccc1/C=N/NC(=O)C(=O)N/N=C/c1ccccc1OC(C)C | 52.3 µM |
| COc1cc(/C=N\NC(=O)C(=O)N/N=C/c2cc(OC)c(O)c(OC)c2)cc(OC)c1O | > 100 µM (inactive) |

| SMILES | IC50 (inhibition of PLAP activity) |
| --- | --- |
| O=C(N/N=C/c1c(O)ccc2ccccc12)C(=O)N/N=C/c1c(O)ccc2ccccc12 | > 100 µM (inactive) |
| Cc1cc(C(=O)N/N=C\c2cc(C(C)(C)C)ccc2O)n[nH]1 | 7.02 µM |
| N#CCOc1ccccc1/C=N/NC(=O)C(=O)N/N=C/c1ccccc1OCC#N | > 100 µM (inactive) |
| COc1cccc(C=NNC(=O)C2=NNC(=O)C2C)c1O (stereo unspecified) | 8.02 µM |
| CCOc1cc(/C=N/NC(=O)C(=O)N/N=C/c2ccc(O)c(OCC)c2)ccc1O | > 100 µM (inactive) |
| O=C(NNC(=S)NC(=O)c1ccccc1[N+](=O)[O-])c1ccccc1O | 15 µM |
| COc1cccc(C=NNC(=O)C(=O)NN=Cc2cccc(OC)c2OC)c1OC | 28.7 µM |
| CCN(CC)c1ccc(/C=N/NC(=O)C(=O)N/N=C/c2ccc(N(CC)CC)cc2O)c(O)c1 | > 100 µM (inactive) |
| O=C(N/N=C/c1ccccc1C(=O)O)C(=O)N/N=C/c1ccccc1C(=O)O | 58.1 µM |
| CC(C)C(=O)NC(=S)Nc1ccccc1C(=O)Nc1ccccc1 | 9.56 µM |
| O=C(N/N=C/c1ccccc1O)c1n[nH]c2c1CCC2 | 8.33 µM |
| O=C(N/N=C/c1ccc2c(c1)OCO2)C(=O)N/N=C/c1ccc2c(c1)OCO2 | > 100 µM (inactive) |
| Cn1cccc1-c1cc(C(=O)NN=Cc2cc(Br)ccc2O)[nH]n1 | 9.66 µM |
| O=C(NN=Cc1ccc(O)cc1O)C(=O)NN=Cc1ccc(O)cc1O | > 100 µM (inactive) |
| COC(=O)c1ccc(/C=N/NC(=O)C(=O)N/N=C/c2ccc(C(=O)OC)cc2)cc1 | > 100 µM (inactive) |
| CN(C)c1ccc(/C=N/NC(=O)C(=O)N/N=C/c2ccc(N(C)C)cc2)cc1 | > 100 µM (inactive) |
| O=C(N/N=C/c1cc(Br)ccc1O)C(=O)N/N=C/c1cc(Br)ccc1O | > 100 µM (inactive) |
| O=C1Nc2ccc(Br)cc2C12NNc1ccccc1O2 (stereo unspecified) | 0.87 µM |
| COc1ccc(OC)c(/C=N/NC(=O)C(=O)N/N=C/c2cc(OC)ccc2OC)c1 | 53.2 µM |

| SMILES | IC50 (inhibition of PLAP activity) |
| --- | --- |
| COc1cc(/C=N/NC(=O)C(=O)N/N=C/c2cc(OC)c(OC)c(OC)c2)cc(OC)c1OC | > 100 µM (inactive) |
| CC(=NNC(=O)C(=O)NN=C(C)c1cccc(O)c1)c1cccc(O)c1 | > 100 µM (inactive) |
| COc1cc(OC)c(OC)cc1/C=N/NC(=O)C(=O)N/N=C/c1cc(OC)c(OC)cc1OC | > 100 µM (inactive) |
| O=C(N/N=C\c1cccc(O)c1)C(=O)N/N=C/c1cccc(O)c1 | 56.1 µM |
| COc1ccc(/C=N/NC(=O)C(=O)N/N=C/c2ccc(OC)c(OC)c2)cc1OC | > 100 µM (inactive) |
| Cc1cc(C(=O)NN=Cc2cc(Cl)cc([N+](=O)[O-])c2O)n[nH]1 | > 100 µM (inactive) |
| C/C(=N\NC(=O)c1cc(C)[nH]n1)c1ccc2ccccc2c1O | 8.16 µM |
| COc1cccc(C=NNC(=O)c2cc(-c3cccn3C)n[nH]2)c1O | 8.67 µM |
| COc1cc(OC)cc(C(=O)NNC(=O)c2nn(C)c(=O)c3ccccc23)c1 | 9.49 µM |
| CCOc1cccc(C=NNC(=O)c2cc(C3CC3)[nH]n2)c1O | 7.02 µM |
| O=C(N/N=C/c1c(O)ccc2ccccc12)c1cc(-c2cccs2)[nH]n1 | 31.8 µM |
| O=C(N/N=C/c1cc(Br)ccc1O)c1cc(C2CC2)[nH]n1 | 11.5 µM |
| Cc1ccc(O)c(C=NNC(=O)c2[nH]ncc2Br)c1 | 14.6 µM |
| CC(=O)Nc1cccc(C(=O)NNC(=O)c2n[nH]c(=O)c3ccccc23)c1 | 10.2 µM |
| O=C(CCN1C(=O)/C(=C/c2ccccc2Cl)SC1=S)NNC(=O)c1ccccc1O | 23.7 µM |
| Cc1cc(C(=O)N/N=C/c2cc(Br)ccc2O)n[nH]1 | 10.3 µM |
| COc1ccc(-c2cc(C(=O)NN=Cc3c(O)ccc4ccccc34)[nH]n2)cc1 | > 100 µM (inactive) |
| CC1C(=O)NN=C1C(=O)NN=Cc1ccc(O)cc1O (stereo unspecified) | 10.3 µM |
